Patent US9717243B2, “Piperidinecarboxylic acid derivatives as fungicides” (priority 2013, dated 2017)
Read-outs that look alike come from different tables or passages of the source.

Tests used:
Plasmopara viticola = assay: Plasmopara test (grapevines)/preventive; conditions: preventive, evaluated 6 days after inoculation, 0% = untreated control, 100% = no disease
Description: Plasmopara Test (Grapevines)/Preventive • Solvent: 24.5 parts by weight of acetone • 24.5 parts by weight of dimethylacetamide • Emulsifier: 1 part by weight of alkylaryl polyglycol ether
After the spray coating has dried on, the plants are inoculated with an aqueous spore suspension of Plasmopara viticola and then remain for 1 day in an incubation cabinet at approximately 20° C. and a relative atmospheric humidity of 100%. The plant is subsequently placed for 4 days in a greenhouse at approximately 21° C. and a relative atmospheric humidity of approximately 90%. The plants are then misted and placed for 1 day in an incubation cabinet.
The test is evaluated 6 days after the inoculation.

[1] = LogP by HPLC on reversed phase columns (EEC directive 79/831 Annex V.A8); format: physicochemical
Description: Calibration was done with straight-chain alkan2-ones (with 3 to 16 carbon atoms) with known LogP values (measurement of LogP values using retention times with linear interpolation between successive alkanones). Lambda-max-values were determined using UV-spectra from 200 nm to 400 nm and the peak values of the chromatographic signals.

Phytophthora infestans = format: in vivo; conditions: 100 ppm of active ingredient; preventive, tomatoes; evaluated 3 days after inoculation; 0% = untreated control, 100% = no disease
[2] = Table 2, compounds of formula (IV), LC-UV, acidic range, 0.1% formic acid in water and acetonitrile as eluent, read-out: Log P[a]

## COC(=O)C1(c2nc(C3=NOC(c4ccccc4OS(C)(=O)=O)C3)cs2)CCN(C(=O)Nc2cc(C(F)F)ccc2C(F)F)CC1 (centres unmarked) [Example I-9]
Plasmopara viticola; 100 ppm of active ingredient
  Efficacy %: 100%
[1]
  Log P[a]: 3.42
Phytophthora infestans
  Efficacy %: 91%

## C#CCOc1ccc(F)c(F)c1C1CC(c2csc(C3(C(=O)OC)CCN(C(=O)Cn4nc(C(F)F)cc4C(F)F)CC3)n2)=NO1 (centres unmarked) [Example I-3]
Plasmopara viticola; 1 ppm of active ingredient
  Efficacy %: 93%
[1]
  Log P[a]: 3.61

## COC(=O)C1(c2nc(C3=NOC(c4ccccc4OS(C)(=O)=O)C3)cs2)CCN(C(=O)Cn2nc(C(F)F)cc2C(F)F)CC1 (centres unmarked) [Example I-7, methyl 1-{[3,5-bis(difluoromethyl)-1H-pyrazol-1-yl]acetyl}-4-[4-(5-{2-[(methylsulfonyl)oxy]phenyl}-4,5-dihydro-1,2-oxazol-3-yl)-1,3-thiazol-2-yl]piperidine-4-carboxylate]
Plasmopara viticola; 100 ppm of active ingredient
  Efficacy %: 100%
[1]; Table 1, compounds of formula (I), LC-UV, acidic range, 0.1% formic acid in water and acetonitrile as eluent, read-out: Log P[a]
  chromatographic logP: 3.27
Phytophthora infestans
  Efficacy %: 95%

## COC(=O)C1(c2nc(C3=NOC(c4ccccc4OS(C)(=O)=O)C3)cs2)CCN(C(=O)Nc2cn(C(F)F)nc2C)CC1 (centres unmarked) [Example I-10]
Plasmopara viticola; 100 ppm of active ingredient
  Efficacy %: 96%
[1]
  Log P[a]: 2.64
Phytophthora infestans
  Efficacy %: 94%

## O=C(Cn1nc(C(F)F)cc1C(F)F)N1CCC(C(=O)OCc2ccccc2)(c2nc(C3=NOC(c4ccccc4-c4ccccc4)C3)cs2)CC1 (centres unmarked) [Example I-36]
[1]; Table 1, compounds of formula (I), LC-UV, acidic range, 0.1% formic acid in water and acetonitrile as eluent
  Log P[a]: 5.08

## CCOC(=O)C1(C(N)=S)CCN(C(=O)Cn2nc(C(F)F)cc2C(F)F)CC1 [II-10]
[1]
  Log P[a]: 2.26

## CC(C)(C)OC(=O)C1(C#N)CCN(C(=O)Nc2cccc(C#N)c2)CC1 [IV-29]
[1]
  Log P[a]: 2.88

## NC(=S)C1(C(=O)OCc2ccccc2)CCN(C(=O)Cn2nc(C(F)F)cc2C(F)F)CC1 [II-4]
[1]
  Log P[a]: 2.90

## COC(=O)C1(c2nc(C3=NOC(c4ccccc4OS(C)(=O)=O)C3)cs2)CCN(C(=O)Nc2cc(C)ccc2C)CC1 (centres unmarked) [Example I-11]
Plasmopara viticola; 100 ppm of active ingredient
  Efficacy %: 100%
[1]
  Log P[a]: 3.29
Phytophthora infestans
  Efficacy %: 100%

## COC(=O)C1(C(N)=S)CCN(C(=O)Nc2cc(C(F)F)nn2C)CC1 [II-12, methyl 4-carbamothioyl-1-{[3-(difluoromethyl)-1-methyl-1H-pyrazol-5-yl]carbamoyl}piperidine-4-carboxylate]
[1]; Table 4, compounds of formula (II), LC-UV, acidic range, 0.1% formic acid in water and acetonitrile as eluent, read-out: Log P[a]
  chromatographic logP: 1.33

## C#CCOc1ccc(F)c(F)c1C1CC(c2csc(C3(C(=O)OC)CCN(C(=O)Cn4nc(C(F)F)cc4C)CC3)n2)=NO1 (centres unmarked) [Example I-66]
Plasmopara viticola; 1 ppm of active ingredient
  Efficacy %: 76%
[1]
  Log P[a]: 3.33

## C#CCOc1ccc(F)c(F)c1C1CC(c2csc(C3(C(=O)OCC=C)CCN(C(=O)Cn4nc(C(F)F)cc4C(F)F)CC3)n2)=NO1 (centres unmarked) [Example I-46]
[1]
  Log P[a]: 3.94

## COC(=O)C1(c2nc(C3=NOC(c4c(F)cccc4F)C3)cs2)CCN(C(=O)Cn2nc(C(F)F)cc2C)CC1 (centres unmarked) [Example I-62]
[1]
  Log P[a]: 3.17

## CC(C)=CCNC(=O)C1(C#N)CCN(C(=O)Nc2ccc(Cl)cc2)CC1 [IV-43]
[1]
  Log P[a]: 2.68

## Cc1cc(C(F)F)nn1CC(=O)N1CCC(C#N)(C(=O)O)CC1 [IV-8]
[1]
  Log P[a]: 1.10

## CCCCNC(=O)C1(C#N)CCN(C(=O)Nc2ccccc2)CC1 [IV-48]
[1]
  Log P[a]: 2.20

## C=CCOC(=O)C1(C#N)CCN(C(=O)Cn2nc(C(F)F)cc2C(F)F)CC1 [IV-5]
[1]
  Log P[a]: 2.71

## C#CCOc1ccc(F)c(F)c1C1CC(c2csc(C3(C(=O)OC)CCN(C(=O)Cn4nc(C)cc4C(F)F)CC3)n2)=NO1 (centres unmarked) [Example I-76]
[1]
  Log P[a]: 3.09

## C#CCOc1ccc(F)c(F)c1C1CC(c2csc(C3(C(=O)OC4CCOC4)CCN(C(=O)Cn4nc(C(F)F)cc4C(F)F)CC3)n2)=NO1 (centres unmarked) [Example I-59]
[1]
  Log P[a]: 3.55

## O=C(Cn1nc(C(F)F)cc1C(F)F)N1CCC(C(=O)OC2CCOC2)(c2nc(C3=NOC(c4c(F)cccc4F)C3)cs2)CC1 (centres unmarked) [Example I-55]
[1]
  Log P[a]: 3.39

## N#Cc1cccc(NC(=O)N2CCC(C#N)(C(=O)O)CC2)c1 [IV-31]
[1]
  Log P[a]: 1.29

## COC(=O)C1(c2nc(C3=NOC(c4ccccc4OS(C)(=O)=O)C3)cs2)CCN(C(=O)Nc2cc(C(F)(F)F)nn2C)CC1 (centres unmarked) [Example I-79]
[1]
  Log P[a]: 3.00

## CC(=O)C1=NOC(c2c(Cl)cccc2OS(C)(=O)=O)C1 (centres unmarked) [2-(3-acetyl-4,5-dihydro-1,2-oxazol-5-yl)-3-chlorophenyl methanesulfonate]
[1]; pH 2.7, synthesis intermediates in preparation examples, read-out: LogP (pH 2.7)
  chromatographic logP: 2.46

## C#CCOc1ccc(F)c(F)c1C1CC(c2csc(C3(C(=O)OCCSC)CCN(C(=O)Cn4nc(C(F)F)cc4C(F)F)CC3)n2)=NO1 (centres unmarked) [Example I-52]
[1]
  Log P[a]: 3.99

## CCC(C)NC(=O)C1(C#N)CCN(C(=S)Nc2cccc(Cl)c2)CC1 (centres unmarked) [IV-35]
[1]
  Log P[a]: 2.69

## COC(=O)C1(C(N)=S)CCN(C(=O)Cn2nc(C(F)(F)F)cc2C)CC1 [II-6]
[1]
  Log P[a]: 2.08

## CC(C)=CCN(C)C(=O)C1(C#N)CCN(C(=O)Nc2ccccc2)CC1 [IV-41]
[1]
  Log P[a]: 2.61

## C#CCOc1ccccc1C1CC(c2csc(C3(C(=O)OCCSC)CCN(C(=O)Cn4nc(C(F)F)cc4C(F)F)CC3)n2)=NO1 (centres unmarked) [Example I-51]
[1]
  Log P[a]: 4.01

## N#CC1(C(=O)OCc2ccccc2)CCN(C(=O)Cn2nc(C(F)F)cc2C(F)F)CC1 [IV-6]
[1]
  Log P[a]: 3.23

## COC(=O)C1(C(N)=S)CCN(C(=O)Nc2cc(C)ccc2C)CC1 [II-15]
[1]
  Log P[a]: 2.02

## C#CCOc1ccc(F)c(F)c1C1CC(c2csc(C3(C(=O)OCC)CCN(C(=O)Cn4nc(C(F)F)cc4C(F)F)CC3)n2)=NO1 (centres unmarked) [Example I-28]
[1]
  Log P[a]: 3.85

## C#CCOc1ccc(F)c(F)c1C1CC(c2csc(C3(C(=O)OC)CCN(C(=O)Nc4cc(C(F)F)nn4C)CC3)n2)=NO1 (centres unmarked) [Example I-16]
[1]
  Log P[a]: 3.00

## CCOC(=O)C1(c2nc(C3=NOC(c4ccccc4OS(C)(=O)=O)C3)cs2)CCN(C(=O)Cn2nc(C(F)F)cc2C(F)F)CC1 (centres unmarked) [Example I-26]
[1]
  Log P[a]: 3.51

## CC(C)OC(=O)C1(c2nc(C3=NOC(c4c(F)cccc4F)C3)cs2)CCN(C(=O)Cn2nc(C(F)F)cc2C(F)F)CC1 (centres unmarked) [Example I-31]
[1]
  Log P[a]: 3.99

## N#CC1(C(=O)O)CCN(C(=O)Nc2ccccc2)CC1 [IV-21]
[1]
  Log P[a]: 1.16

## COC(=O)C1(c2nc(C3=NOC(c4ccccc4OS(C)(=O)=O)C3)cs2)CCN(C(=O)Nc2cc(C(F)F)nn2C)CC1 (centres unmarked) [Example I-8]
[1]
  Log P[a]: 2.64

## COC(=O)C1(C#N)CCN(C(=O)Cn2nc(C(F)F)cc2C(F)F)CC1 [IV-13, methyl 1-{[3,5-bis(difluoromethyl)-1H-pyrazol-1-yl]acetyl}-4-cyanopiperidine-4-carboxylate]
[1]; [2]
  chromatographic logP: 2.26

## C#CCOc1ccc(F)c(F)c1C1CC(c2csc(C3(C(=O)OCc4ccccc4)CCN(C(=O)Cn4nc(C(F)F)cc4C(F)F)CC3)n2)=NO1 (centres unmarked) [Example I-40]
[1]
  Log P[a]: 4.31

## CC(C)OC(=O)C1(C(N)=S)CCN(C(=O)Cn2nc(C(F)F)cc2C(F)F)CC1 [II-9]
[1]
  Log P[a]: 2.52

## COC(=O)C1(C#N)CCN(C(=O)Nc2cc(C(F)F)nn2C)CC1 [IV-17, methyl 4-cyano-1-{[3-(difluoromethyl)-1-methyl-1H-pyrazol-5-yl]carbamoyl}piperidine-4-carboxylate]
[1]; [2]
  chromatographic logP: 1.53

## C#CCOC(=O)C1(c2nc(C3=NOC(c4c(Cl)cccc4OS(C)(=O)=O)C3)cs2)CCN(C(=O)Cn2nc(C(F)F)cc2C(F)F)CC1 (centres unmarked) [Example I-78]
[1]
  Log P[a]: 3.58

## CCOC(=O)C1(c2nc(C3=NOC(c4c(F)cccc4F)C3)cs2)CCN(C(=O)Cn2nc(C(F)F)cc2C(F)F)CC1 (centres unmarked) [Example I-24]
[1]
  Log P[a]: 3.73

## O=C(Cn1nc(C(F)F)cc1C(F)F)N1CCC(C(=O)OC2CCOC2)(c2nc(C3=NOC(c4ccccc4)C3)cs2)CC1 (centres unmarked) [Example I-56]
[1]
  Log P[a]: 3.39

## COC(=O)C1(C#N)CCN(C(=O)Nc2cn(C(F)F)nc2C)CC1 [IV-18]
[1]
  Log P[a]: 1.51

## COC(=O)C1(c2nc(C3=NOC(c4ccccc4)C3)cs2)CCN(C(=O)Cn2nc(C(F)(F)F)cc2C)CC1 (centres unmarked) [Example I-70]
[1]
  Log P[a]: 3.55

## O=C(Cn1nc(C(F)F)cc1C(F)F)N1CCC(C(=O)OCc2ccccc2)(c2nc(C3=NOC(c4c(F)cccc4F)C3)cs2)CC1 (centres unmarked) [Example I-37]
[1]
  Log P[a]: 4.21
